Data on 79 compounds can be found in the METLIN SMRT retention time set (Domingo-Almenara et al. 2019).

This data set can be described thus: gradient 5% acetonitrile 3 min, to 50% in 2 min, to 85% in 15 min, held 3 min, 100 µL/min. Conditions: column: Zorbax Extend-C18 2.1 x 50 mm; eluents: water / acetonitrile, 0.1% formic acid. The method, boiled down:
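Over 3 months, pure standards in mixtures of ~100 molecules were run by HPLC coupled to a quadrupole time-of-flight mass spectrometer in positive and negative ionization mode. The column was a Zorbax Extend-C18 (2.1 × 50 mm, 1.8 μm) at 100 μL/min, eluted with water and acetonitrile each holding 0.1% formic acid, with 40 μL dead and 900 μL dwell volumes. Retention time was determined from adduct peaks chosen by software and checked manually.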
The compound `O=c1c2cc(-c3cccs3)nn2cnn1Cc1nc(-c2ccc(OC(F)(F)F)cc2)no1` displayed an RP-LC retention time of 1180 s.

Regarding `C[C@@H](NC(=O)c1ccc(F)cc1)C(=O)NCc1cscn1`, the RP-LC retention time was determined as 627 s.

The compound `COc1ccc(-c2nnc(-c3ccc(C)c(S(=O)(=O)N(C)C)c3)o2)cc1` yielded an RP-LC retention time of 966 s.

As to `Cc1ccnc(NC(=O)C2CC(=O)N(c3n[nH]c4cccc(F)c34)C2)c1` (centres undefined), the RP-LC retention time was 602 s.

`CSc1ccc(NC(=O)Nc2ccccc2C(N)=O)cc1` gave an RP-LC retention time of 846 s.

Consider `Cn1nc(C2CCCNC2)n(Cc2ccccc2)c1=O` (centres undefined), for which the RP-LC retention time worked out at 556 s.

In turn, `C[C@H](NC(=O)[C@@H]1CCCN1C(=O)[C@@H]1CCCN1C(=O)[C@@H](O)[C@H](N)Cc1ccccc1)C(N)=O` registered an RP-LC retention time of 552 s.

For `O=C(Cn1cnc2nc3c(cc2c1=O)CCCC3)N1CCN(c2ccccc2)CC1`, the RP-LC retention time amounted to 748 s.

`CCCc1cc(N2CCN(C(=O)c3cccs3)CC2)nc2nncn12` had an RP-LC retention time of 601 s.

The compound `COc1ccc(-c2noc(Cc3nnc(-c4cccc(Cl)c4)o3)n2)cc1` yielded an RP-LC retention time of 1070 s.

For the compound `CCCNC(=O)N1CCN(Cc2nc3cccnc3n2-c2ccccc2)CC1`, the RP-LC retention time was 597 s.

Turning to `Cc1ccc(-c2noc(CC(=O)NC(C)c3ccc(C)cc3C)n2)cc1` (centres undefined), the RP-LC retention time worked out at 1080 s.

The compound `CC(C)(C)c1cc(C(=O)NCc2ccc(F)cc2)nc2ccnn12` had an RP-LC retention time of 1140 s.

The compound `CC(C)CN1Cc2ccccc2-n2ccnc2C12CCN(C(=O)c1ccco1)CC2` yielded an RP-LC retention time of 654 s.

For the compound `COc1ccccc1-c1noc(Cn2c(=O)n(-c3ccc(Cl)cc3)c(=O)c3sccc32)n1`, the RP-LC retention time was found to be 950 s.

The compound `CCN1CCCCc2cc(C(=O)NCCN3CCCCC3C)sc21` (centres undefined) returned an RP-LC retention time of 698 s.

As for `O=C(CSc1nnc(COc2ccccc2Cl)o1)Nc1nc(-c2ccccc2)cs1`, the RP-LC retention time was 917 s.

The compound `O=C(NCc1ccc(F)cc1)N1CCC(c2noc(C3CC3)n2)C1` (centres undefined) came in with an RP-LC retention time of 751 s.

In turn, `CCC(=O)N1CCc2cc(C(=O)NC(C)C)ccc21` had an RP-LC retention time of 685 s.

In turn, `O=C(Nc1cccc(F)c1)C1CCN(S(=O)(=O)c2cc(-c3noc(C4CCC4)n3)cs2)CC1` had an RP-LC retention time of 1110 s.

For `Cc1cc(C)c(S(=O)(=O)N2CCN(Cc3cccc(F)c3)C3(CCOCC3)C2)c(C)c1`, the RP-LC retention time worked out at 973 s.

`Cc1ccc2c(Nc3cccc(C(F)(F)F)c3)c(C(=O)N3CCOCC3)cnc2n1` returned an RP-LC retention time of 573 s.

`Cc1ccc(C)c(S(=O)(=O)N2CCC(n3cnnc3C(C)C)CC2)c1` gave an RP-LC retention time of 768 s.

`O=C(O)c1cc(Nc2ccc(F)cc2)c2cccc(Cl)c2n1`: the RP-LC retention time came out at 624 s.

The compound `Cn1c(=O)c(N2CCC(NC(=O)Nc3cccc(C(F)(F)F)c3)CC2)nc2ccccc21` yielded an RP-LC retention time of 1010 s.

`CCn1nccc1C(=O)N1CCCN(C2=NS(=O)(=O)C(c3ccc(F)cc3)=C2C)CC1` returned an RP-LC retention time of 737 s.

In turn, `CCc1ccc(CN2CCn3c(nn(C)c3=O)C2)cc1` had an RP-LC retention time of 689 s.

Turning to `CCOc1cc(=O)c(C(N)=O)nn1-c1ccc(F)cc1`, the RP-LC retention time was 622 s.

Take `O=C(NCc1ccccc1)C1CCCN(c2ncnc3c2oc2ccccc23)C1` (centres undefined): the RP-LC retention time was found to be 754 s.

`O=C(NCCCc1ccccc1)c1n[nH]c2c1CN(C(=O)C1CC1)CC2`: the RP-LC retention time came out at 789 s.

For `Clc1ccccc1OCc1nn2c(CSc3ccccc3)nnc2s1`, the RP-LC retention time came to 1020 s.

`COCCNS(=O)(=O)c1cc2c(cc1C)CCN2C(C)=O` displayed an RP-LC retention time of 657 s.

The compound `CSc1cccc(Nc2c(C(=O)N3CCOCC3)cnc3nc(C)ccc23)c1` yielded an RP-LC retention time of 606 s.

In turn, `CCCN1CCN(CCCNC(=O)c2sc3ncccc3c2-n2cccc2)CC1` had an RP-LC retention time of 574 s.

Compound `CCc1nnc(-c2ccc3ccn(CC(=O)N4CCC5(CC4)OCCO5)c3c2)o1` displayed an RP-LC retention time of 722 s.

The compound `CCn1c(=O)oc2cc(S(=O)(=O)N3CCN(C(=O)C4(c5ccccc5)CC4)CC3)ccc21` yielded an RP-LC retention time of 848 s.

In the case of `O=c1n(Cc2ccc(F)cc2)nc2c(S(=O)(=O)N3CCCCC3)cccn12`, the RP-LC retention time turned out to be 887 s.

For the compound `CN1CCN(S(=O)(=O)c2ccc(C#N)cc2)CC1c1ccccc1` (centres undefined), the RP-LC retention time came out at 528 s.

Consider `CCn1cc(-c2ccc(C)cc2)cc1C(=O)NCCN(C)C`, for which the RP-LC retention time was determined as 680 s.

For `COc1ccc(Cn2nnc3cc(C(=O)NCc4ccco4)ccc32)cc1`, the RP-LC retention time was determined as 818 s.

Consider `Cc1sc(-c2cc(C(F)(F)F)[nH]n2)cc1S(=O)(=O)N1CCN(c2ccccn2)CC1`, for which the RP-LC retention time amounted to 752 s.

Regarding `O=C(Cc1ccccc1)N1CCN(c2nc3cccnc3o2)CC1`, the RP-LC retention time was 686 s.

With `COc1ccc(OC)c(CNC(=O)C2CCCN(c3ncnc4c3nc3n4CCCCC3)C2)c1` (centres undefined), the RP-LC retention time turned out to be 746 s.

As to `Fc1ccc(N2CCN(Cc3nc(-c4ccccc4)no3)CC2)cc1`, the RP-LC retention time turned out to be 964 s.

In turn, `CCN(Cc1ccccc1)c1ccc(-c2noc(CN3CCSCC3)n2)cn1` returned an RP-LC retention time of 1030 s.

Consider `O=C(C1CCN(S(=O)(=O)N2CCOCC2)CC1)N1CCC(c2nc(C3CCOCC3)no2)CC1`, for which the RP-LC retention time is 674 s.

Consider `CSc1cccc(NC(=O)N2CCC(C)(C(=O)NCc3ccc(F)cc3)CC2)c1`, for which the RP-LC retention time came to 884 s.

In the case of `CC(C)N1CCn2cc(S(=O)(=O)Nc3ccc(C#N)cc3)cc2C1=O`, the RP-LC retention time is 719 s.

The compound `Cc1ccccc1-n1c(Cn2nc(-c3cccc(O)c3)c3c(N)ncnc32)nc2cccc(C)c2c1=O` yielded an RP-LC retention time of 778 s.

Regarding `COc1cc([C@@H]2c3cc4c(cc3[C@H](O)[C@@H](CO)[C@@H]2C(=O)N2CCN(c3ccccc3)CC2)OCO4)cc(OC)c1OC`, the RP-LC retention time came to 749 s.

`Cc1ccc(NC(=O)c2c(O)c3cccnc3n(-c3ccc(F)cc3)c2=O)c(F)c1` had an RP-LC retention time of 1330 s.

In the case of `COc1ccc(CSc2ncnc3nc[nH]c23)cc1`, the RP-LC retention time came out at 654 s.

On to `CCCS(=O)(=O)N1CCc2c(c(CN(C(C)=O)c3ccccc3)nn2C)C1`, for which the RP-LC retention time is 707 s.

In the case of `O=C(CNS(=O)(=O)c1ccc2c(c1)OCCO2)N1CCOC(c2ccccc2)C1` (centres undefined), the RP-LC retention time is 775 s.

Compound `CC(C)c1ccc(-c2nc3ccccc3s2)cc1` gave an RP-LC retention time of 958 s.

In the case of `Cc1nc(N2CCN(c3ccc(F)cc3)CC2)ncc1C(=O)O`, the RP-LC retention time came out at 888 s.

Regarding `CCOC(=O)C1CCN(C(=O)c2ccc(-c3csc(C4CC4)n3)cc2)CC1`, the RP-LC retention time was 961 s.

The compound `Cc1occc1C(=O)Nc1nc(-c2ccc(CC(C)C)cc2)cs1` showed an RP-LC retention time of 1350 s.

`CC(C)c1nnc(-c2ccc(=O)n(CC(=O)N3CCN(c4ccccn4)CC3)c2)o1` registered an RP-LC retention time of 570 s.

`COc1ccc(-c2nc3n(n2)C2(CCCCC2)[C@@H]2CCCC[C@@H]2N3C(=O)c2ccco2)cc1` displayed an RP-LC retention time of 1380 s.

In the case of `O=C(Cc1ccsc1)Nc1cccn2c(C3CCC3)nnc12`, the RP-LC retention time came to 745 s.

As for `Cc1ccc(CNC(=O)CN2CCN(Cc3cccc(Cl)c3)C2=O)o1`, the RP-LC retention time is 810 s.

In turn, `Cc1ccc2[nH]cc(CCNC(=O)Cn3c4ccccc4c4cnn(C)c(=O)c43)c2c1` returned an RP-LC retention time of 839 s.

With `CCSC1=NCCN1C(=O)c1ccc(C(F)(F)F)cc1`, the RP-LC retention time worked out at 679 s.

As to `CCCCCNC(=O)C1CCCN(S(=O)(=O)c2cc(Cl)ccc2OC)C1` (centres undefined), the RP-LC retention time was found to be 960 s.

As for `Cc1sc(-c2nnc(C(=O)N3CCCC3)o2)cc1S(=O)(=O)NCc1cccnc1`, the RP-LC retention time stood at 1310 s.

In turn, `Cc1ccc(Nc2ncnc3nc[nH]c23)cc1Cl` showed an RP-LC retention time of 682 s.

`Cc1ccc(C)c(NC(=O)C(=O)NCC(c2ccc3c(c2)CCCN3C)N2CCOCC2)c1` (centres undefined) came in with an RP-LC retention time of 601 s.

Regarding `CCCNc1cc(N2CCCC(CCC(=O)N3CCN(C(=O)c4ccco4)CC3)C2)ncn1` (centres undefined), the RP-LC retention time turned out to be 628 s.

On to `Fc1ccccc1-c1noc(-c2nnn3c2COC(c2ccc(Cl)cc2)C3)n1` (centres undefined), for which the RP-LC retention time stood at 1160 s.

Turning to `CCOCCCNC(=O)C1CCCN(c2nc3ccc(Br)cc3[nH]2)C1` (centres undefined), the RP-LC retention time was 625 s.

On to `Cc1ccc2nc(-c3ccc(N4CCOCC4)cc3)c(Nc3ccc4c(c3)OCCO4)n2c1`, for which the RP-LC retention time amounted to 692 s.

`Cc1csc(-c2cc(S(=O)(=O)Nc3cc(Cl)ccc3F)cn2CC(=O)N2CCCC2)n1` registered an RP-LC retention time of 924 s.

Turning to `CCc1nc(-c2csc(S(=O)(=O)N3CCC(C(=O)Nc4ccccc4F)CC3)c2)no1`, the RP-LC retention time turned out to be 981 s.

As to `O=C(Nc1ccc(CN2CCCCC2)cc1)C1CCCN(c2ncnc3c2nc2n3CCCCC2)C1` (centres undefined), the RP-LC retention time was 1050 s.

Turning to `O=C([C@@H]1C[C@H](Oc2ccccc2)CN1C(=O)COc1ccccc1)N1CCCC1`, the RP-LC retention time was 828 s.

`COc1ccc(NC(=O)N2CCN(c3ccc(=O)n(-c4ccc(C)c(C)c4)n3)CC2)cc1OC` came in with an RP-LC retention time of 764 s.

As for `COCc1cc(=O)n(CC(=O)Nc2ccc(Br)cc2)c(N2CCOCC2)n1`, the RP-LC retention time came out at 892 s.

Take `Cn1cnnc1SCC(=O)N1CCc2ccccc21`: the RP-LC retention time is 604 s.
